Results on 45 molecules are retold here after patent US8865704B2, “Wnt pathway antagonists” (Siena Biotech S.p.A., priority 2009, dated 2014).

This test relates to Wnt/β-catenin pathway. Nature of the test: Wnt reporter assay (TCF-Luciferase, Firefly) in DBTRG-05MG cells. It counts as cell-based. Particulars: Homo sapiens, 24 hours after compound addition. As for the experimental part:
TCF-Luciferase: Three copies of a 4×TCF responsive elements were cloned into the pcDNA3.1/Zeo(+) vector (Invitrogen) after deletion of the constitutive CMV promoter and the insertion of the Firefly Luciferase from Promega (phFL-TK) to measure the activity of the Wnt/β-catenin pathway. The resulting plasmid was sequenced for quality control.
Cells were grown in 20 μg/ml Zeocin and 20 μg/ml Zeocin plus 30 μg/ml Hygromicin respectively. The cells were plated at a density of 6500 cells/well in poly-D-lysine pre-treated 96 well-plates.
IC50 determination: 36 hours after plating cells were incubated with 8-points (60 μM-40 μM-20 μM-10 μM-5 μM-1.66 μM-0.55 μM-0.185 μM) dilutions compound (0.6% DMSO (v/v)). Each compound was tested in triplicate in single plate. Luciferase detection was done with Dual-Luciferase Reporter Assay System (Promega). 24 hours after compound addition, media was removed and 30 μl of 1× lysis buffer was added to each well for 30 minutes. To each well 45 μl of Dual-Glo Luciferase reagent (Promega) were added and after 1 second delay Luciferase was detected for 1 second using Mithras LB940 instrument. After Firefly luciferase quantification 45 μl of Dual Stop & Glo reagent (Promega) were added to each well and Firefly Renilla was detected using the same parameters described before.
Data were expressed as % of control for Firefly and Renilla luciferase independently; values were calculated using XLFit version 4.2, with a four parameters sigmoid function (XLFit model 205).
Background: In a reporter assay the amount or activity of a reporter protein is the signal.

What is called IC50 is the concentration that gives 50% inhibition. A low value points to greater potency in that assay. With `O=c1[nH]c2ccccc2c(=O)n1C[C@H]1CC[C@H](C(=O)N2CCN(c3ncccn3)CC2)CC1` [Example 1, trans-3-[4-(4-Pyrimidin-2-yl-piperazine-1-carbonyl)-cyclohexylmethyl]-1H-quinazoline-2,4-dione], the 50% inhibitory concentration (IC50) lay within 0.3 to 30 µM.

`Cn1c(=O)n(C[C@H]2CC[C@H](C(=O)N3CCN(c4ccccc4)CC3)CC2)c(=O)c2ccccc21` [Example 2, trans-1-Methyl-3-[4-(4-phenyl-piperazine-1-carbonyl)-cyclohexylmethyl]-1H-quinazoline-2,4-dione] displayed an IC50 of 0.3 to 30 µM.

Molecule `O=C(C1CCCO1)N1CCN(C(=O)[C@H]2CC[C@H](Cn3c(=O)[nH]c4ccccc4c3=O)CC2)CC1` (stereo partly drawn) [Example 4, 3-{4-[4-(Tetrahydro-furan-2-carbonyl)-piperazine-1-carbonyl]-cyclohexylmethyl}-1H-quinazoline-2,4-dione] registered an IC50 of 0.3 to 30 µM.

As for `CC(C)C(=O)N1CCN(C(=O)[C@H]2CC[C@H](CN3C(=O)CC(c4ccccc4)NC3=O)CC2)CC1` (stereo partly drawn) [Example 6, 3-[trans-4-(4-Isobutyryl-piperazine-1-carbonyl)-cyclohexylmethyl]-6-phenyl-dihydro-pyrimidine-2,4-dione], the 50% inhibitory concentration (IC50) fell in the range of 0.3 to 30 µM.

With `O=C(C1CC1)N1CCN(C(=O)[C@H]2CC[C@H](CN3Cc4ccccc4NC3=O)CC2)CC1` [Example 7, 3-[trans-4-(4-Cyclopropanecarbonyl-piperazine-1-carbonyl)cyclohexylmethyl]-3,4-dihydro-1H-quinazolin-2-one], the concentration for half-maximal inhibition (IC50) lay within 0.3 to 30 µM.

Molecule `COc1ccc2[nH]c(=O)n(C[C@H]3CC[C@H](C(=O)N4CCOCC4)CC3)c2c1` [Example 8, 6-Methoxy-1-[trans-4-(morpholine-4-carbonyl)-cyclohexylmethyl]-1,3-dihydro-benzoimidazol-2-one] returned a half-maximal inhibitory concentration (IC50) of 0.3 to 30 µM.

The molecule `COc1ccc2c(c1)n(C[C@H]1CC[C@H](C(=O)N3CCOCC3)CC1)c(=O)n2C` [Example 9, 5-Methoxy-1-methyl-3-[trans-4-(morpholine-4-carbonyl)-cyclohexylmethyl]-1,3-dihydro-benzoimidazol-2-one] showed a half-inhibitory concentration (IC50) of 0.3 to 30 µM.

Consider `O=C(C1CC1)N1CCN(C(=O)[C@H]2CC[C@H](Cn3c(=O)[nH]c4ccc(Cl)cc43)CC2)CC1` [Example 11, 6-Chloro-1-[trans-4-(4-cyclopropanecarbonyl-piperazine-1-carbonyl)cyclohexylmethyl]-1,3-dihydro-benzoimidazol-2-one], for which the half-inhibitory concentration (IC50) was 0.3 to 30 µM.

On to `CC(=O)N1CCN(C(=O)[C@H]2CC[C@H](CN3C(=O)Cc4ccccc4C3=O)CC2)CC1` [Example 12, 2-[trans-4-(4-Acetyl-piperazine-1-carbonyl)-cyclohexylmethyl]-4H-isoquinoline-1,3-dione], for which the half-maximal inhibitory concentration (IC50) lay in the range of 0.3 to 30 µM.

As to `O=C1CN(C[C@H]2CC[C@H](C(=O)N3CCN(c4ccccn4)CC3)CC2)C(=O)c2ccccc2N1` [Example 13, 4-[trans-4-(4-pyridin-2-yl-piperazine-1-carbonyl)-cyclohexylmethyl]-3,4-dihydro-1H-benzo[e][1,4]diazepine-2,5-dione], the half-inhibitory concentration (IC50) lay in the range of 0.3 to 30 µM.

With `CN1C(=O)CN(C[C@H]2CC[C@H](C(=O)N3CCN(c4ccccn4)CC3)CC2)C(=O)c2ccccc21` [Example 14, 1-Methyl-4-[trans-4-(4-pyridin-2-yl-piperazine-1-carbonyl)-cyclohexylmethyl]-3,4-dihydro-1H-benzo[e][1,4]diazepine-2,5-dione], the IC50 is 0.3 to 30 µM.

The molecule `CN1C(=O)N(C[C@H]2CC[C@H](C(=O)N3CCN(c4ccccn4)CC3)CC2)C(=O)Cc2ccccc21` [Example 15, 1-Methyl-3-[trans-4-(4-pyridin-2-yl-piperazine-1-carbonyl)-cyclohexylmethyl]-1,5-dihydro-benzo[d][1,3]diazepine-2,4-dione] displayed an IC50 of 0.3 to 30 µM.

As for `O=C1Nc2ccccc2CCN1C[C@H]1CC[C@H](C(=O)N2CCN(c3ccccn3)CC2)CC1` [Example 16, 3-[trans-4-(4-pyridin-2-yl-piperazine-1-carbonyl)-cyclohexylmethyl]-1,3,4,5-tetrahydro-benzo[d][1,3]diazepin-2-one], the 50% inhibitory concentration (IC50) is 0.3 to 30 µM.

Molecule `COc1ccc2c(c1)n(C[C@H]1CC[C@H](C(=O)N3CCN(C(C)=O)CC3)CC1)c(=O)n2C` [Example 17, 3-[trans-4-(4-Acetyl-piperazine-1-carbonyl)-cyclohexylmethyl]-5-methoxy-1-methyl-1,3-dihydro-benzoimidazol-2-one] registered a half-maximal inhibitory concentration (IC50) of 0.3 to 30 µM.

On to `O=C(C1CCC(Cn2cnc3ccccc3c2=O)CC1)N1CCN(Cc2ccccc2)CC1` (stereo not drawn) [Example 19], for which the IC50 lay within 0.3 to 30 µM.

Molecule `O=C(C1CCC(Cn2c(=O)[nH]c3ccccc3c2=O)CC1)N1CCOCC1` (stereo not drawn) [Example 22] returned a 50% inhibitory concentration (IC50) of 0.3 to 30 µM.

For the molecule `O=C(Nc1cccnc1)C1CCC(Cn2c(=O)[nH]c3ccccc3c2=O)CC1` (stereo not drawn) [Example 23], the IC50 lay within 0.3 to 30 µM.

In turn, `O=c1[nH]c2ccccc2c(=O)n1C[C@H]1CC[C@H](C(=O)N2CCN(Cc3ccccc3)CC2)CC1` [Example 24] returned an IC50 of 0.3 to 30 µM.

In the case of `O=c1[nH]c2ccc(Cl)cc2c(=O)n1C[C@H]1CC[C@H](C(=O)N2CCN(Cc3ccccc3)CC2)CC1` [Example 25], the IC50 is 0.3 to 30 µM.

`COc1ccc(N2CCN(C(=O)C3CCC(Cn4c(=O)[nH]c5ccccc5c4=O)CC3)CC2)cc1` (stereo not drawn) [Example 28] came in with a half-maximal inhibitory concentration (IC50) of 0.3 to 30 µM.

Molecule `CC(C)C(=O)N1CCN(C(=O)[C@H]2CC[C@H](Cn3c(=O)[nH]c4ccccc4c3=O)CC2)CC1` [Example 30] yielded an IC50 of 0.3 to 30 µM.

The molecule `COCC(=O)N1CCN(C(=O)[C@H]2CC[C@H](Cn3c(=O)[nH]c4ccccc4c3=O)CC2)CC1` [Example 31] gave a concentration for half-maximal inhibition (IC50) of 0.3 to 30 µM.

Turning to `O=C(CCC1CCCC1)N1CCN(C(=O)[C@H]2CC[C@H](Cn3c(=O)[nH]c4ccccc4c3=O)CC2)CC1` [Example 32], the IC50 was 0.3 to 30 µM.

Take `CC(=O)N1CCN(C(=O)[C@H]2CC[C@H](Cn3c(=O)[nH]c4ccccc4c3=O)CC2)CC1` [Example 33]: the IC50 was 0.3 to 30 µM.

Molecule `CC(C)(C)NC(=O)N1CCN(C(=O)[C@H]2CC[C@H](Cn3c(=O)[nH]c4ccccc4c3=O)CC2)CC1` [Example 34] showed an IC50 of 0.3 to 30 µM.

The molecule `CCCCC(=O)N1CCN(C(=O)[C@H]2CC[C@H](Cn3c(=O)[nH]c4ccccc4c3=O)CC2)CC1` [Example 35] gave a 50% inhibitory concentration (IC50) of 0.3 to 30 µM.

`O=C(c1ccno1)N1CCN(C(=O)[C@H]2CC[C@H](Cn3c(=O)[nH]c4ccccc4c3=O)CC2)CC1` [Example 36] gave an IC50 of 0.3 to 30 µM.

Molecule `COc1ccc(CN2CCN(C(=O)[C@H]3CC[C@H](Cn4c(=O)[nH]c5ccccc5c4=O)CC3)CC2)cc1` [Example 38] showed an IC50 of 0.3 to 30 µM.

As to `COc1cccc(CN2CCN(C(=O)[C@H]3CC[C@H](Cn4c(=O)[nH]c5ccccc5c4=O)CC3)CC2)c1` [Example 39], the IC50 lay in the range of 0.3 to 30 µM.

Regarding `Cc1ccc(CN2CCN(C(=O)[C@H]3CC[C@H](Cn4c(=O)[nH]c5ccccc5c4=O)CC3)CC2)o1` [Example 40], the half-maximal inhibitory concentration (IC50) was 0.3 to 30 µM.

Molecule `CC(C)N1CCN(C(=O)[C@H]2CC[C@H](Cn3c(=O)[nH]c4ccccc4c3=O)CC2)CC1` [Example 41] displayed a half-inhibitory concentration (IC50) of 0.3 to 30 µM.

In turn, `O=C(N1CCCC1)N1CCN(C(=O)[C@H]2CC[C@H](Cn3c(=O)[nH]c4ccccc4c3=O)CC2)CC1` [Example 42] gave an IC50 of 0.3 to 30 µM.

Consider `CC(C)N1CCN(C(=O)[C@H]2CC[C@H](Cn3c(=O)[nH]c4ccc(Cl)cc4c3=O)CC2)CC1` [Example 43], for which the half-inhibitory concentration (IC50) lay in the range of 0.3 to 30 µM.

As to `O=C1CC(c2ccccc2)NC(=O)N1C[C@H]1CC[C@H](C(=O)N2CCN(c3ccccc3)CC2)CC1` (stereo partly drawn) [Example 44], the 50% inhibitory concentration (IC50) fell in the range of 0.3 to 30 µM.

Regarding `O=C1Nc2ccccc2CN1C[C@H]1CC[C@H](C(=O)N2CCN(c3ccccc3)CC2)CC1` [Example 45], the IC50 lay in the range of 0.3 to 30 µM.

On to `CN1C(=O)N(C[C@H]2CC[C@H](C(=O)N3CCN(c4ccccc4)CC3)CC2)Cc2ccccc21` [Example 46], for which the IC50 lay in the range of 0.3 to 30 µM.

`O=c1[nH]c2ccccc2c(=O)n1C[C@H]1CC[C@H](C(=O)Nc2ccc3ncsc3c2)CC1` [Example 49] had an IC50 of 0.3 to 30 µM.

The molecule `CC(c1ccccc1)N1CCN(C(=O)C2CCC(Cn3c(=O)[nH]c4ccccc4c3=O)CC2)CC1` (stereo not drawn) [Example 50] came in with a half-maximal inhibitory concentration (IC50) of 0.3 to 30 µM.

For the molecule `CC(C)C(=O)N1CCN(C(=O)[C@H]2CC[C@H](Cn3c(=O)[nH]c4cccc(Cl)c4c3=O)CC2)CC1` [Example 51], the IC50 fell in the range of 0.3 to 30 µM.

For the molecule `CC(=O)N1CCN(C(=O)[C@H]2CC[C@H](Cn3c(=O)c4ccccc4n(C)c3=O)CC2)CC1` [Example 52], the 50% inhibitory concentration (IC50) lay within 0.3 to 30 µM.

As to `COCC(=O)N1CCN(C(=O)[C@H]2CC[C@H](Cn3c(=O)c4ccccc4n(C)c3=O)CC2)CC1` [Example 53], the IC50 lay in the range of 0.3 to 30 µM.

Molecule `CC(C)C(=O)N1CCN(C(=O)[C@H]2CC[C@H](Cn3c(=O)[nH]c4cccc(F)c4c3=O)CC2)CC1` [Example 54] registered an IC50 of 0.3 to 30 µM.

Turning to `COc1cccc2[nH]c(=O)n(C[C@H]3CC[C@H](C(=O)N4CCN(C(=O)C(C)C)CC4)CC3)c(=O)c12` [Example 55], the IC50 was 0.3 to 30 µM.

Turning to `CC(C)C(=O)N1CCN(C(=O)[C@H]2CC[C@H](Cn3c(=O)n(C)c4ccccc43)CC2)CC1` [Example 61], the half-inhibitory concentration (IC50) was 0.3 to 30 µM.

In turn, `COCC(=O)N1CCN(C(=O)[C@H]2CC[C@H](Cn3c(=O)[nH]c4ccc(Cl)cc4c3=O)CC2)CC1` [Example 62] yielded an IC50 of 0.3 to 30 µM.
